# Test results reported in patent US6794149B1, “GABA B receptors” (Bayer Aktiengesellschaft, priority 1999, dated 2004).
# How the values were obtained:
# [1] = system: D-GABA B receptors R1/R2; test: cAMP measurement in HEK293 cells stably coexpressing D-GABA B R1/R2; format: cell-based, Drosophila melanogaster; conditions: D-GABA B R1/2-transfected HEK293 cells; GABA (100 μM) with forskolin (10 μM), 30 minutes, 37° C.; FIG. 2
# Procedure: HEK293 cells were cultured at 5% CO2 and 37° C. in Dulbecco's modified Eagle's medium and 10% foetal calf serum. MBS (Stratagene, La Jolla, USA) was used for the gene transfer, following the manufacturer's instructions. 24 h to 48 h after the gene transfer, the cells were sown intro microtiter plates at various densities. Recombinant cells were selected over 3 to 4 weeks by growth in Dulbecco's modified Eagles medium and 10% foetal calf serum and 700 μg/ml Geneticin (G418, Life Technologies, Karlsruhe) as selection marker. Individual resistant clones were analysed as described below.
# HEK293 cell strains were used for determining the cAMP concentration. On the one hand, HEK293 cells stably coexpressed the two Drosophila melanogaster receptors D-GABA B R1 and D-GABA B R2 (D-GABA R1/2). On the other hand, untransfected control cells were incorporated into the assay (control). In each case, the cells were plated into 96-well-plates at a density of 20,000 cells per cavity. […] The cells were lysed for 20 minutes at room temperature with shaking, and the cAMP concentration of the cell lysates were determined in triplicate using the enzyme immunoassay (EIA) kit AK-200 (Biomol, Hamburg, Germany) following the manufacturer's description.
# [2] = system: untransfected control cells (HEK293); test: cAMP measurement in untransfected HEK293 control cells; format: cell-based; conditions: GABA (100 μM) with forskolin (10 μM), 30 minutes, 37° C., FIG. 2
# Procedure: HEK293 cell strains were used for determining the cAMP concentration. On the one hand, HEK293 cells stably coexpressed the two Drosophila melanogaster receptors D-GABA B R1 and D-GABA B R2 (D-GABA R1/2). On the other hand, untransfected control cells were incorporated into the assay (control). In each case, the cells were plated into 96-well-plates at a density of 20,000 cells per cavity. Control cells were incubated in culture medium (DMEM, 10% FCS, penicillin and streptomycin, 50 U/ml and 50 μg/ml (Life Technologies)) and D-GABA-R1/2 expressing cells in selection medium (culture medium with 0.5 mg/ml Geneticin (G418, Life Technologies)) for 48 hours at 37° C. until a cell density of approximately 80% was reached. Thereupon, the medium was removed, and the cells were washed once with unsupplemented DMEM. After incubation for 30 minutes with IBMX (300 μM) at 37° C., cells were stimulated for 30 minutes with GABA (100 μM) and/or forskolin (10 μM) at 37° C. All incubation steps were carried out in unsupplemented DMEM (Life Technologies). […] The cells were lysed for 20 minutes at room temperature with shaking, and the cAMP concentration of the cell lysates were determined in triplicate using the enzyme immunoassay (EIA) kit AK-200 (Biomol, Hamburg, Germany) following the manufacturer's description.
structure (smiles),measurement,setting,value
"NCCCC(=O)O [GABA, Gamma-amino-butyric acid]",forskolin-induced cAMP response (intracellular cAMP concentration),[1],marked reduction
same,forskolin-induced cAMP response (intracellular cAMP concentration),[2],unresponsive
